Patent EP4410284A1, “COMPOUND AND METHOD FOR THE TREATMENT OF ZELLWEGER SPECTRUM DISORDER” (Apteeus, priority 2023, dated 2024)
Where a name gives a salt, the structure may show the parent alone.

Columns and labels:
Type in all cases: cell-based, human
[1] = system: GM16513 cells; assay: Catalase import immunofluorescence, high-content screening (% importing cells); conditions: GM16513 cells, 3 days; for EC50 / Emax: Homo sapiens, 72 h, dose response with 6 concentrations; for EC50: read-out: EC50; for Emax: read-out: Max Efficacy (% Importing cells)
Experimental: Images analysis was done using Columbus analysis software (PerkinElmer). DAPI channel was used to find nuclei (Hoechst 33342) and cytoplasm (HCS CellMask Blue) and border objects were removed. Cy5 channel (AlexaFluor 647) was used to find spots corresponding to peroxisomes which correctly import catalase. […] The number of importing or non-importing cells was calculated. Finally, results were expressed as % of importing cells.
(§4) The cytotoxicity was assessed in parallel using a double nucleus staining with Hoechst 33342 and Propidium Iodide (PI).
The EC50 and maximum efficacy of these inhibitors were determined.

[2] = system: PEX405 cells; assay: as above; conditions: for Concentration (lower dose leading to the maximum effect) / Importing cells (%): PEX405 (PEX1); for Importing cells (%): at the lower dose leading to the maximum effect (see E12); for % Importing cells: PEX405 cells, 3 days
Experimental: as §4

[3] = system: GM 16865; assay: Catalase import immunofluorescence (% importing cells); conditions: GM 16865 (PEX26); for Importing cells (%): at the lower dose leading to the maximum effect (see E22)
Experimental: (§1) Primary fibroblasts were seeded at 500-700 cells per well in 384-well plates and grown at 37°C overnight. Cells were treated with test compounds or 0.1% DMSO for 3 days. After 3 days and a wash with PBS, cells were fixed with 4% paraformaldehyde (Electron Microscopy Sciences) in PBS for 20 minutes. After 3 washes with PBS, the cells were permeabilized and blocked with 0.3% Triton X-100, 1% BSA in PBS for 30 minutes at room temperature followed by 3 washes with 1% BSA in PBS. The cells were incubated with a rabbit Catalase polyclonal antibody (#12980 Cell signaling) overnight at 4°C. Following 3 washes with PBS containing 0.1% Tween-20, the cells were incubated for 1 h at room temperature with a conjugated goat anti-rabbit secondary antibody Alexa Fluor 647 (Ab150083-Abcam). The cells were then washed 3 times with PBS and Hoechst 33342 (H3570-ThermoFisher Scientific) + HCS Cellmask Blue (H32720 - ThermoFisher Scientific) staining was performed at 0.1 µg/ml and 0.4 µg/mL respectively for 30 minutes at room temperature. The cells were finally washed 3 times with PBS and fluorescent images were acquired using the INCell Analyzer 6000 imaging platform (GE Healthcare Life Sciences).
(§2) Images analysis was done using Columbus analysis software (PerkinElmer). DAPI channel was used to find nuclei (Hoechst 33342) and cytoplasm (HCS CellMask Blue) and border objects were removed. Cy5 channel (AlexaFluor 647) was used to find spots corresponding to peroxisomes which correctly import catalase. Cells were classified as importing or non-importing cells using a linear classifier method after training with images of wells containing Healthy cells and PEX1 deficient cells. The number of importing or non-importing cells was calculated. Finally, results were expressed as % of importing cells.
(§3) Among the HDAC inhibitors of example 2, 4 were tested on other cells which are PEX1, PEX6 or PEX26 deficient.

[4] = system: GM 17398; assay: as above; conditions: GM 17398 (PEX26 deficient); for Importing cells (%): at the lower dose leading to the maximum effect (see E24)
Experimental: as §1, §2, §3

[5] = system: GM11335; assay: as above; conditions: GM11335 (PEX26); for Importing cells (%): at the lower dose leading to the maximum effect (see E20)
Experimental: as §1, §2, §3

[6] = system: PEX304; assay: as above; conditions: PEX304 (PEX1); for Importing cells (%): at the lower dose leading to the maximum effect (see E14)
Experimental: as §1, §2, §3

[7] = system: PEX506; assay: as above; conditions: PEX506 (PEX6); for Importing cells (%): at the lower dose leading to the maximum effect (see E16)
Experimental: as §1, §2, §3

[8] = system: PEX607; assay: as above; conditions: PEX607 (PEX6); for Importing cells (%): at the lower dose leading to the maximum effect (see E18)
Experimental: as §1, §2, §3

[9] = system: GM16513 cells; assay: Beta-oxidation of d4-C24:0 (LC-MS/MS)
Experimental: Degradation (to d4-C16:0) and elongation (to d4-C26:0 and d4-C28:0) of d4-VLCFA (very long chain fatty acid) in the cells was measured using d4-C24:0 as substrate (D-6145-CDN isotopes). D4-C24:0 was solubilized in culture medium using α-cyclodetrin, with a molar ratio of d4-C24:0:α-cyclodextrin 1:50. Cyclodextrins, which are cyclic oligosaccharides, are commonly used to solubilize fatty acids by complexation, for supplementation of cell culture media, and serve as vehicle to deliver fatty acids to the cells. Cyclodextrins have a polar surface and a hydrophobic cylindrical cavity that can bind and solubilize a wide variety of hydrophobic molecules, such as fatty acids, while remaining soluble in water. The assay was performed in T75 culture flasks for 3 or 10 days. The medium was replaced by fresh medium every 2-3 days and supplemented with d4-C24:0 for the last 3 days. After 3 or 10 days, cells were harvested and lysated in water (100-200 µL) by freeze/thaw cycle and sonication for 5 min. Total proteins were quantified using BCA assay and 100 µg of total proteins were used for each sample.
After cell lysis, the samples were dried using a rotating evaporator (Genevac EZ-2, SP Scientific), set at 40°C for 2h under vacuum. After evaporation, a hydrolysis mix consisting of 90% acetonitrile and 10% NaOH 1N in water was added to the samples. The samples were incubated for 1h at room temperature under stirring (300 rpm). After hydrolysis, the samples were evaporated using a Genevac device, under vacuum, at 40°C for 2h.
Derivation of free fatty acids was done using a 2.5 mg/mL Na2CO3 solution in DMF and a 2.5 mg/mL TMAE (trimethylammoniumethyl) reagent solution in DMF. The solutions were mixed in a 1:1 ratio, and 200 µL of the mix was added to dry samples to be derived. For the derivation, the samples were incubated for 3h at 50°C. DMF was then evaporated using a Genevac™ device, under vacuum, at 60°C for 4h.
Before injection, the samples were solubilized in a 90/10 acetonitrile/isopropanol mixture with 1% HCl. After solubilization, the samples were stirred and centrifuged at 4000 rpm for 20 min at 10°C.
For the separation of the derived fatty acids by liquid chromatography, a Waters Acquity ultra-performance liquid chromatography (UPLC) system (Acquity I-Class, Waters) was used. […]
After separation by liquid chromatography, the analytes were subjected to MS analysis using a Waters Xevo TQSmicro system (Waters). […] The molecules were analyzed using MRM (multiple reaction monitoring) mode, with the main daughter ion for each derived fatty acid corresponding to the loss of a trimethylammonium moiety (m/z 59). Derived FAs with a chain length from 16 to 28, with no or one unsaturation, were analyzed. […] The acquired data were analyzed by the Waters MassLynx software.

[10] = 0.5 µM for 3 or 10 days, compared to non-treated cells

Structure (SMILES)	% Importing cells ([1]; 1.3 µM) [%]	% Importing cells ([1]; 10 µM) [%]	EC50 [1] [nM]	Emax [1] [%]	Concentration (lower dose leading to the maximum effect) [2] [µM]	Importing cells (%) [2] [%]	% Importing cells ([2]; 1.3 µM) [%]	% Importing cells ([2]; 10 µM) [%]	Concentration (lower dose leading to the maximum effect) [3] [µM]	Importing cells (%) [3] [%]	Concentration (lower dose leading to the maximum effect) [4] [µM]	Importing cells (%) [4] [%]	Concentration (lower dose leading to the maximum effect) [5] [µM]	Importing cells (%) [5] [%]	Concentration (lower dose leading to the maximum effect) [6] [µM]	Importing cells (%) [6] [%]	Concentration (lower dose leading to the maximum effect) [7] [µM]	Importing cells (%) [7] [%]	Concentration (lower dose leading to the maximum effect) [8] [µM]	Importing cells (%) [8] [%]	further results
CCN(CC)Cc1ccc2cc(COC(=O)Nc3ccc(C(=O)NO)cc3)ccc2c1 [Givinostat (hydrochloride monohydrate), Givinostat]	81	32	170	80	0.25	13	12	6	0.25	20	2.5	0	0.087	20	0.85	5	0.087	69	0.25	42	d4-C16,C18,C20 and C22 levels ([9]; 3 days of treatment, dose response manner): increase
O=C(/C=C/c1cccc(S(=O)(=O)Nc2ccccc2)c1)NO [Belinostat]	95	97	200	98	2.5	41	52	27	0.85	35	2.5	0	0.85	30	2.5	11	0.25	64	0.85	43	relative d4-VLCFA levels (C26, C28) [9, 10]: decrease; shortest d4-FA (C16, C18) levels [9, 10]: increase
